Data as given in article PMC5223195, “Novel long-chain compounds with both immunomodulatory and MenA inhibitory activities against Staphylococcus aureus and its biofilm” (Scientific Reports, 2017).
In brackets after ≈: the same amount, converted by molar mass. Entries after “also recorded” stand apart in the source; their conditions may differ. Like-named read-outs stand apart in the source and are kept apart here.

Tests used:
MRSA (USA200) = test: Colony morphology / small colony variant formation on TSA; type: cell-based, Staphylococcus aureus; details: USA200 on TSA, 37 °C, up to 96 h (3a 4–16 μg/mL), 72 h (7c, rifampin)
Experimental: MRSA was streaked and then incubated on tryptic soy agar (TSA) containing 0, 2, 4, 8 or 16 μg/mL of inhibitor 3a or 4 μg/mL of 7C or 0.025 μg/mL of rifampin at 37 °C for 96 h. MK-4 (100 μg/mL) was supplemented in TSA containing 8 μg/mL of 3a for the rescue experiment.

MRSA USA100 = test: MIC against MRSA USA100; type: cell-based, Staphylococcus aureus; details: TSB, 37 °C, 18–20 hours; for MIC: Staphylococcus aureus, read-out: MIC, Staphylococcus aureus isolate USA100
Experimental: (§1) 96-well plates were seeded with 5 × 10^5 CFU/mL in a volume of 100 μL of tryptic soy broth (TSB) per well for Staphylococcus aureus assays. Compounds were dissolved in DMSO and serially diluted as 1:2 dilutions to give the final concentration ranging from 0.25 to 128 μg/mL per well. […] Plates were incubated at 37 °C for 18–20 hours and MIC was determined by reading OD625. For M.avium and M.abscessus, 7H9 broth media was used for determination of MICs. The final concentration was 5 × 10^5 CFU/mL in each well. The plate was incubated at 37 °C for 7–8 days and MICs were determined using a Tecan microplate reader (OD625) and resazurin reduction assay.

MRSA USA200 = test: MIC against MRSA USA200; type: cell-based, Staphylococcus aureus; details: TSB, 37 °C, 18–20 hours; for MIC: Staphylococcus aureus, read-out: MIC, Staphylococcus aureus isolate USA200
Experimental: as §1

MRSA USA300 = test: MIC against MRSA USA300; type: cell-based, Staphylococcus aureus; details: TSB, 37 °C, 18–20 hours; for MIC: Staphylococcus aureus, read-out: MIC, Staphylococcus aureus isolate USA300
Experimental: as §1

MRSA USA400 = test: MIC against MRSA USA400; type: cell-based, Staphylococcus aureus; details: TSB, 37 °C, 18–20 hours; for MIC: Staphylococcus aureus, read-out: MIC, Staphylococcus aureus isolate USA400
Experimental: as §1

MRSA USA500 = test: MIC against MRSA USA500; type: cell-based, Staphylococcus aureus; details: TSB, 37 °C, 18–20 hours; for MIC: Staphylococcus aureus, read-out: MIC, Staphylococcus aureus isolate USA500
Experimental: as §1

MRSA USA700 = test: MIC against MRSA USA700; type: cell-based, Staphylococcus aureus; details: TSB, 37 °C, 18–20 hours; for MIC: Staphylococcus aureus, read-out: MIC, Staphylococcus aureus isolate USA700
Experimental: as §1

MRSA USA800 = test: MIC against MRSA USA800; type: cell-based, Staphylococcus aureus; details: TSB, 37 °C, 18–20 hours; for MIC: Staphylococcus aureus, read-out: MIC, Staphylococcus aureus isolate USA800
Experimental: as §1

[1] = system: Methicillin susceptible Staphylococcus aureus; test: MIC against MSSA; type: cell-based; details: for MIC: MSSA
Experimental: as §1

Enterococcus faecalis = test: MIC against Enterococcus faecalis; type: cell-based; details: for MIC: read-out: MIC, EF
Pseudomonas aeruginosa = test: MIC against Pseudomonas aeruginosa; type: cell-based; details: for MIC: read-out: MIC, PA
Mycobacterium avium = test: MIC against Mycobacterium avium; type: cell-based; details: 7H9 broth, 7–8 days
Experimental: as §1

Mycobacterium abscessus = test: MIC against Mycobacterium abscessus; type: cell-based; details: Mycobacteroides abscessus, 7H9 broth, 7–8 days
Experimental: as §1

Gram-positive bacteria = test: MIC against Gram-positive bacteria (summary); type: cell-based; details: range over all tested Gram-positive bacteria
Experimental: as §1

MRSA (USA700) biofilms = test: S. aureus biofilm assay; type: cell-based, Staphylococcus aureus
Experimental: Biofilm assays were performed using a method previously described with modification. A 96 well plate was precoated with 20% human plasma (Sigma) in 0.05 M carbonate buffer, pH 9.6 at 4 °C for 24 h. MRSA was cultured overnight in TSB containing 3% NaCl and 0.5% glucose. The overnight culture was diluted with TSB/NaCl/Glucose media until OD600 reached 0.05. After carefully removing the liquid from the 96 well plate, 200 μL of MRSA dilution was added to each well in triplicate. The plate was incubated at 37 °C for 24 h and carefully washed with PBS twice. MH broth (200 μL) containing a compound was added to each well in triplicate and incubated at 37 °C for 24 h. After washing with PBS twice, the biofilm was scraped in 100 μL of PBS and serially diluted and plated on TSA to determine CFU.

MRSA (USA 700) = test: Activity against extracellular MRSA in the presence of human MDMs; type: cell-based, Staphylococcus aureus; details: extracellular MRSA USA700, MIC and MIC/4, 24 h
Experimental: Human monocyte-derived macrophages (MDM) were cultured at a concentration of 1 × 10^6 cells/mL/well in a 24 well plate. MRSA (USA 700) was cultured in TSB (10 mL) until OD625 reached 0.4~0.5 and then centrifuged at 14,000 rpm for 10 min. The pellets were resuspended in 10 mL of DMEM supplemented with 10% human serum (no antibiotics). The bacteria medium was diluted with DMEM containing an inhibitor to obtain 1 × 10^6 CFU/mL and added to human MDMs (MOI = 1) in a 24-well plate. After 24 hour infection at 37 °C, the supernatants were serially diluted for CFU determination (TSA plates).

TNF-α = TNF-α release from THP-1 macrophages; type: cell-based, human; details: concentration equal to MIC, 24 h, 37 °C
Experimental: (§2) THP-1 cells were differentiated into macrophages by treatment with PMA (7.5 ng/mL). Levels of the human cytokines (GM-CSF, IFN-γ, IL-1β, IL-2, IL-4, IL-5, IL-6, IL-8, IL-10, TNF-α) released from THP-1 macrophages were determined using a multiplex kit from Life Technologies according to the manufacturer’s instructions. In brief, the 96 well filter plate was pre-wetted, and then 25 μL of the diluted bead suspension was added to each well and washed twice. 100 μL of samples and standards were added to each well. The plate was incubated at room temperature for 2 h on a shaker. Following washing, biotinylated detection antibody was added and incubated for 1 h. After washing, streptavidin-RPE was added to each well and incubated for 0.5 h. The plate was again washed, resuspended in 100 μL of the washing buffer, and read on the Luminex xMAP™ system (Bio-Rad, AtheNA multi-Lyte™, USA). All samples were run in triplicate and standards were run in duplicate.

IL-6 = IL-6 release from THP-1 macrophages; type: cell-based, human; details: concentration equal to MIC, 24 h, 37 °C
Experimental: as §2

IL-1β = IL-1β release from THP-1 macrophages; type: cell-based, human; details: concentration equal to MIC, 24 h, 37 °C
Experimental: as §2

MRSA strains = test: MIC against MRSA strains (summary); type: cell-based, Staphylococcus aureus; details: range over MRSA strains
Experimental: as §1

MenA = details: previously reported; cited from earlier work
MRSA USA 200 = test: Menaquinone (MK-4) rescue, resazurin reduction assay, USA 200; type: cell-based; details: Staphylococcus aureus, read-out: MIC in the presence of MK-4
Experimental: Resazurin reduction assay was performed in 96-well plate. MRSA was cultured in TSB until OD625 reached 0.4~0.5 and diluted and plated in 96-well plate. […] The plate was incubated overnight at 37 °C followed by 20 μL of resazurin (0.15 mg/mL) was added to each well. The plate was incubated for 2–4 h and fluorescence was measured at 560 nm excitation/590 nm emission.

Compound	MIC (MRSA USA100)	MIC (MRSA USA200)	MIC (MRSA USA300)	MIC (MRSA USA400)	MIC (MRSA USA500)	MIC (MRSA USA700)	MIC (MRSA USA800)	MIC [1]	MIC (Enterococcus faecalis)	MIC (Pseudomonas aeruginosa)	MIC (Mycobacterium avium)	MIC (Mycobacterium abscessus)	MIC values against all Gram-positive bacteria (range) (Gram-positive bacteria)	other results
CO[C@H]1/C=C/O[C@@]2(C)Oc3c(C)c(O)c4c(O)c(c(/C=N/N5CCN(C)CC5)c(O)c4c3C2=O)NC(=O)/C(C)=C\C=C\[C@H](C)[C@H](O)[C@@H](C)[C@@H](O)[C@@H](C)[C@H](OC(C)=O)[C@@H]1C [rifampin, reference compound]	–	–	–	–	–	–	–	–	–	–	–	–	–	induction of small colony variants (SCV) (MRSA (USA200)): showed growth of SCV
COc1ccc2ccc(OCCCCCCCCNCCc3ccc(Cl)cc3)cc2c1 [3b]	6 µg/mL (≈ 13.6 µM)	2 µg/mL (≈ 4.55 µM)	6 µg/mL (≈ 13.6 µM)	4 µg/mL (≈ 9.09 µM)	8 µg/mL (≈ 18.2 µM)	8 µg/mL (≈ 18.2 µM)	6 µg/mL (≈ 13.6 µM)	4 µg/mL (≈ 9.09 µM)	0.5 µg/mL (≈ 1.14 µM)	> 64 µg/mL	4 µg/mL (≈ 9.09 µM)	12 µg/mL (≈ 27.3 µM)	0.5 to 16 µg/mL	–
CN(C)c1ccc(O)c2c1C[C@H]1C[C@H]3[C@H](N(C)C)C(O)=C(C(N)=O)C(=O)[C@@]3(O)C(O)=C1C2=O [Minomycin, Minocycline, reference compound]	–	–	–	0.5 µg/mL (≈ 1.09 µM)	< 0.06 µg/mL	–	–	–	16 µg/mL (≈ 35 µM)	–	–	–	–	MIC, Staphylococcus aureus isolate USA700 (MRSA USA700): < 0.06 µg/mL; MRSA biofilm growth compared to the positive control (MRSA (USA700) biofilms; USA700 biofilm, 0.5 and 0.03 mg/mL, 24 h): significant decrease; fold reduction of MRSA biofilm compared to the positive control (MRSA (USA700) biofilms; USA 700 biofilm, 8300 × MIC): 10^6 fold
Brc1cc2ccc(OCCCCCCCCN3CCCCC3)cc2cc1OCc1ccccc1 [6b]	–	–	–	–	–	–	–	–	–	–	–	–	–	MIC, Staphylococcus aureus isolate USA100 (MRSA USA100): 6 µg/mL (≈ 11.4 µM); MIC, Staphylococcus aureus isolate USA200 (MRSA USA200): 4 µg/mL (≈ 7.63 µM); MIC, Staphylococcus aureus isolate USA300 (MRSA USA300): 6 µg/mL (≈ 11.4 µM); MIC, Staphylococcus aureus isolate USA400 (MRSA USA400): 6 µg/mL (≈ 11.4 µM); MIC, Staphylococcus aureus isolate USA500 (MRSA USA500): 12 µg/mL (≈ 22.9 µM); MIC, Staphylococcus aureus isolate USA700 (MRSA USA700): 16 µg/mL (≈ 30.5 µM); MIC, Staphylococcus aureus isolate USA800 (MRSA USA800): 12 µg/mL (≈ 22.9 µM); MIC, MSSA [1]: 4 µg/mL (≈ 7.63 µM); MIC, EF (Enterococcus faecalis): 2 µg/mL (≈ 3.81 µM); MIC, PA (Pseudomonas aeruginosa): >128 µg/mL; MIC, MA (Mycobacterium avium): 2 µg/mL (≈ 3.81 µM); increase of antibacterial activity compared to activities with MDMs (MRSA (USA 700)): 1.5 – 3 fold; increase of antibacterial activity compared to activities without MDMs (MRSA (USA 700)): 6–12 fold; TNF-α released from THP-1 macrophages (TNF-α): decreased; IL-6 released from THP-1 macrophages (IL-6): decreased; also recorded: significantly reduced; IL-1β released from THP-1 macrophages (IL-1β): stimulated the release
Fc1ccc(CCNCCCOc2ccc3ccc(OCCCNCCc4ccc(F)cc4)cc3c2)cc1 [7c]	3 µg/mL (≈ 5.78 µM)	2 µg/mL (≈ 3.86 µM)	3 µg/mL (≈ 5.78 µM)	1 µg/mL (≈ 1.93 µM)	8 µg/mL (≈ 15.4 µM)	2 µg/mL (≈ 3.86 µM)	4 µg/mL (≈ 7.71 µM)	2 µg/mL (≈ 3.86 µM)	1 µg/mL (≈ 1.93 µM)	> 128 µg/mL	3 µg/mL (≈ 5.78 µM)	6 µg/mL (≈ 11.6 µM)	0.5 to 16 µg/mL	MICs against MRSA strains (range) (MRSA strains): 1 to 8 µg/mL; induction of small colony variants (SCV) (MRSA (USA200)): did not induce SCV; increase of antibacterial activity compared to activities with MDMs (MRSA (USA 700)): 1.5 – 3 fold; increase of antibacterial activity compared to activities without MDMs (MRSA (USA 700)): 6–12 fold; TNF-α released from THP-1 macrophages (TNF-α): decreased; IL-6 released from THP-1 macrophages (IL-6): decreased; also recorded: significantly reduced; IL-1β released from THP-1 macrophages (IL-1β): stimulated the release
C=CCN(C)CCCCCCCCOc1ccc2ccc(OC)cc2c1 [compound 1]	–	–	16 µg/mL (≈ 45 µM)	16 µg/mL (≈ 45 µM)	–	16 µg/mL (≈ 45 µM)	–	32 µg/mL (≈ 90 µM)	8 µg/mL (≈ 22.5 µM)	128 µg/mL (≈ 360 µM)	–	–	–	M.tb IC50 (inhibition of both M.tb and MenA enzyme activity) (MenA): 6 µg/mL
COc1ccc2ccc(OCCCCCCCCNCCc3ccc(Br)cc3)cc2c1 [3c]	6 µg/mL (≈ 12.4 µM)	2 µg/mL (≈ 4.13 µM)	4 µg/mL (≈ 8.26 µM)	4 µg/mL (≈ 8.26 µM)	6 µg/mL (≈ 12.4 µM)	4 µg/mL (≈ 8.26 µM)	6 µg/mL (≈ 12.4 µM)	4 µg/mL (≈ 8.26 µM)	1 µg/mL (≈ 2.06 µM)	> 64 µg/mL	4 µg/mL (≈ 8.26 µM)	12 µg/mL (≈ 24.8 µM)	0.5 to 16 µg/mL	MIC, Staphylococcus aureus isolate USA200 (MRSA USA200): 2 µg/mL (≈ 4.13 µM); MIC (MRSA USA 200; USA 200, 0.05 mg/mL MK-4): 16 µg/mL; MIC (MRSA USA 200; USA 200, 0.5 mg/mL MK-4): 64 µg/mL
COc1ccc2ccc(OCCCCCCCCN3CCCCC3)cc2c1 [compound 2]	–	–	16 µg/mL (≈ 43.3 µM)	16 µg/mL (≈ 43.3 µM)	–	16 µg/mL (≈ 43.3 µM)	–	16 µg/mL (≈ 43.3 µM)	16 µg/mL (≈ 43.3 µM)	> 64 µg/mL	–	–	–	M.tb IC50 (inhibition of both M.tb and MenA enzyme activity) (MenA): 5 µg/mL
